Like-named read-outs stand apart in the source and are kept apart here.
Assays:
DRB1*0101 (DR1) = target: T1, DRB1*0101 (DR1) (Homo sapiens, UniProt P01903+P01911, A100R/D57E/F55L/F60I/F76Y/I96L/L162R/M171V/P40L/Q125E/R42F/V115G/Y59C); assay: biochemical; format: binding; settings: Binding Capacity (IC 50% nM) DR1,4,7 DRB1
T1 construct: Epstein-Barr virus (EBV) transformed homozygous cell lines were used as sources; endogenous in cells; host or cells: LG2 (EBV-transformed homozygous B cell line)

DRB1*0401 (DR4w4) = target: T2, DRB1*0401 (DR4w4) (Homo sapiens, UniProt P01903+P01911, A100K/A169T/F76Y/I96L/K127E/L162R/M171V/N62H/P40V/Q125Y/R42H/S133A/S149N/S66Y/V115G/V209L/W38E); assay: biochemical; format: binding
T2 construct: Epstein-Barr virus (EBV) transformed homozygous cell lines were used as sources; endogenous in cells; host or cells: PREISS (EBV-transformed homozygous B cell line)

DRB1*0701 (DR7) = target: T3, DRB1*0701 (DR7) (Homo sapiens, UniProt P01903+P01911, A100R/A102G/A103Q/D57E/D86V/E43K/F76Y/K127E/L162R/M171V/P40G/Q125H/Q99D/R33Q/R42Y/R54Q/S133A/S66F/T210M/V115G/Y107V/Y59L/Y89S); assay: biochemical; format: binding
T3 construct: Epstein-Barr virus (EBV) transformed homozygous cell lines were used as sources; endogenous in cells; host or cells: PITOUT (EBV-transformed homozygous B cell line)

DRB1*1501 (DR2w2b) = target: T4, DRB1*1501 (DR2w2b) (Homo sapiens, UniProt P01903+P01911); assay: biochemical; format: binding
T4 construct: expressed in transfected cells; host or cells: transfected fibroblasts L466.1

DRB5*0101 (DR2w2a) = target: T5, DRB5*0101 (DR2w2a) (Homo sapiens, UniProt P01903+Q30154); assay: biochemical; format: binding
T5 construct: Epstein-Barr virus (EBV) transformed homozygous cell lines were used as sources; endogenous in cells; host or cells: GM3107 (EBV-transformed homozygous B cell line)

DRB1*0405 (DR4w15) = target: T6, DRB1*0405 (DR4w15) (Homo sapiens, UniProt P01903+P01911, A100R/A169T/D86S/F76Y/I96L/K127E/L162R/M171V/N62H/P40V/Q125Y/R42H/S133A/S149N/S66Y/V115G/V209L/W38E); assay: biochemical; format: binding
T6 construct: Epstein-Barr virus (EBV) transformed homozygous cell lines were used as sources; endogenous in cells; host or cells: KT3 (EBV-transformed homozygous B cell line)

DRB1*1101 (DR5w11) = target: T7, DRB1*1101 (DR5w11) (Homo sapiens, UniProt P01903+P01911, A100R/A169T/A87E/I96F/K41T/L162R/M171V/P40S/Q125H/Q178H/Q39Y/Q99D/R42S/S66Y/T262R/V115G/W38E); assay: biochemical; format: binding
T7 construct: Epstein-Barr virus (EBV) transformed homozygous cell lines were used as sources; endogenous in cells; host or cells: SWEIG (EBV-transformed homozygous B cell line)

DRB1*1302 (DR6w19) = target: T8, DRB1*1302 (DR6w19) (Homo sapiens, UniProt P01903+P01911, A100E/A169T/K41T/L162R/M171V/P40S/Q125H/Q178H/Q39Y/Q99D/R42S/S66N/T262R/V115G/W38E/Y61H); assay: biochemical; format: binding
T8 construct: Epstein-Barr virus (EBV) transformed homozygous cell lines were used as sources; the source of Class II molecules the EBV transformed homozygous cell line H0301; endogenous in cells; host or cells: H0301 (EBV-transformed homozygous B cell line)

DRB1*0802 (DR8w2) = target: T9, DRB1*0802 (DR8w2) (Homo sapiens, UniProt P01903+P01911, A100R/A103L/A169T/F76Y/H45Y/I96F/K41T/L162R/M171V/P40S/Q125H/Q178H/Q39Y/Q99D/R218S/R42G/S66Y/V115G/W38E); assay: biochemical; format: binding
T9 construct: Epstein-Barr virus (EBV) transformed homozygous cell lines were used as sources; endogenous in cells; host or cells: OLL (EBV-transformed homozygous B cell line)

DRB1*0901 (DR9) = target: T10, DRB1*0901 (DR9) (Homo sapiens, UniProt P01903+P01911, A100R/A103E/D57H/D86V/F55Y/F60I/F76Y/I96F/K127E/L162R/M171V/P40D/Q125H/Q99R/R33Q/R42F/S133A/S66N/T210M/V115G/W38K/Y107V/Y59G/Y89S); assay: biochemical; format: binding
T10 construct: Epstein-Barr virus (EBV) transformed homozygous cell lines were used as sources; endogenous in cells

DRB1*1201 (DR5w12) = target: T11, DRB1*1201 (DR5w12) (Homo sapiens, UniProt P01903+P01911, A100R/A169T/D57E/D86V/F55L/H45Y/K41T/L162R/M171V/P40S/Q125H/Q178H/Q39Y/Q99D/R42G/S66L/T262R/V114A/V67L/W38E/Y59H/Y61H/Y89S); assay: biochemical; format: binding
T11 construct: Epstein-Barr virus (EBV) transformed homozygous cell lines were used as sources; endogenous in cells; host or cells: Herluf (EBV-transformed homozygous B cell line)

DRB1*0301 (DR3w17) [1] = target: T12, DRB1*0301 (DR3w17) (Homo sapiens, UniProt P01903+P01911, A100K/A102G/A103R/A169T/F55Y/I96L/K41T/L162R/M171V/P40S/Q125H/Q178H/Q39Y/R42S/S66N/T106N/T262R/W38E/Y61H); settings: read-out: Binding Capacity (IC 50% nM) Other Alleles DR3
DRB1*0301 (DR3w17) [2] = target: T12, DRB1*0301 (DR3w17); assay: biochemical; settings: Binding Capacity (IC50% nM) DR3
[3] = Binding Capacity (IC 50% nM) DR1,4,7 DR4w4
[4] = Binding Capacity (IC 50% nM) Other Alleles DR2w2b
[5] = Binding Capacity (IC50% nM) DR5w11
[6] = read-out: Binding Capacity (IC 50% nM) Other Alleles DR5w11
[7] = read-out: Binding Capacity (IC 50% nM) Other Alleles DR8w2
[8] = read-out: Binding Capacity (IC 50% nM) Other Alleles DR9
[9] = read-out: Binding Capacity (IC 50% nM) Other Alleles DR5w12
[10] = Binding Capacity (IC 50% nM) DR1,4,7 DR7
[11] = Binding Capacity (IC 50% nM) Other Alleles DR2w2a
[12] = Binding Capacity (IC 50% nM) Other Alleles DR4w15
[13] = read-out: Binding Capacity (IC 50% nM) Other Alleles DR6w19

T7 sequence (P01903 26-254, other chains not shown): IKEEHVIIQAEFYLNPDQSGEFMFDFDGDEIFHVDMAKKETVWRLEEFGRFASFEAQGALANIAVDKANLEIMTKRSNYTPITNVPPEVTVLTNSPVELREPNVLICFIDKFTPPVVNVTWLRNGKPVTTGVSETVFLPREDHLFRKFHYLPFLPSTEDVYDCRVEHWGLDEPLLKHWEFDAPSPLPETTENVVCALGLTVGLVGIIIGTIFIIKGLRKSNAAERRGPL

Compound | IC50 (DRB1*0101 (DR1)) [nM] | IC50 (DRB1*0401 (DR4w4); [3]) [nM] | IC50 (DRB1*1501 (DR2w2b); [4]) [nM] | IC50 (DRB1*1101 (DR5w11); [5]) [nM] | IC50 (DRB1*1101 (DR5w11); [6]) [nM] | IC50 (DRB1*0802 (DR8w2); [7]) [nM] | IC50 (DRB1*0901 (DR9); [8]) [nM] | IC50 (DRB1*1201 (DR5w12); [9]) [nM] | IC50 (DRB1*0301 (DR3w17) [1]) [nM] | IC50 (DRB1*0301 (DR3w17) [2]) [nM] | IC50 (DRB1*0701 (DR7); [10]) [nM] | IC50 (DRB5*0101 (DR2w2a); [11]) [nM] | IC50 (DRB1*0405 (DR4w15); [12]) [nM] | IC50 (DRB1*1302 (DR6w19); [13]) [nM] | also measured
CC[C@H](C)[C@H](N)C(=O)N[C@@H](CCCCN)C(=O)N[C@@H](CC(C)C)C(=O)N1CCC[C@H]1C(=O)N[C@H](C(=O)N[C@H](C(=O)N[C@@H](CC(C)C)C(=O)N[C@@H](C)C(=O)N[C@@H](Cc1ccccc1)C(=O)N[C@@H](C)C(=O)N[C@H](C(=O)N[C@@H](CS)C(=O)N[C@@H](Cc1ccccc1)C(=O)N[C@@H](CC(C)C)C(=O)N[C@H](C(=O)N1CCC[C@H]1C(=O)O)[C@@H](C)CC)[C@@H](C)O)[C@@H](C)CC)[C@@H](C)CC [Peptide 1136.12] | < 1000 | < 1000 | < 1000 | > 10000 | > 1000 | > 1000 | > 1000 | > 1000 | > 1000 | > 10000 |  |  |  |  | IC50 (DRB1*0701 (DR7); read-out: Binding Capacity (IC 50% nM) DR1,4,7 DR7): > 1000 nM; IC50 (DRB5*0101 (DR2w2a); read-out: Binding Capacity (IC 50% nM) Other Alleles DR2w2a): > 1000 nM; IC50 (DRB1*0405 (DR4w15); read-out: Binding Capacity (IC 50% nM) Other Alleles DR4w15): > 1000 nM; IC50 (DRB1*1302 (DR6w19); Binding Capacity (IC 50% nM) Other Alleles DR6w19): < 1000 nM; IC50 (DRB1*1201 (DR5w12); Binding Capacity (IC50% nM) DR5w12): > 10000 nM
CC[C@H](C)[C@H](NC(=O)[C@H](CC(C)C)NC(=O)[C@H](Cc1ccccc1)NC(=O)[C@H](CS)NC(=O)[C@@H](NC(=O)[C@H](C)NC(=O)[C@@H](N)Cc1ccccc1)[C@@H](C)O)C(=O)N1CCC[C@H]1C(=O)N[C@@H](CC(C)C)C(=O)N[C@H](C(=O)N[C@@H](CO)C(=O)N[C@@H](CCC(N)=O)C(=O)N[C@@H](Cc1ccccc1)C(=O)N[C@@H](Cc1ccccc1)C(=O)N[C@@H](CC(C)C)C(=O)N1CCC[C@H]1C(=O)O)[C@@H](C)O [Peptide 1136.14] | < 1000 |  | < 1000 | > 10000 | > 1000 | > 1000 | > 1000 | > 1000 | > 1000 | > 10000 | < 1000 | < 1000 | < 1000 | > 1000 | IC50 (DRB1*0401 (DR4w4); read-out: Binding Capacity (IC 50% nM) DR1,4,7 DR4w4): > 1000 nM; IC50 (DRB1*0701 (DR7); Binding Capacity (IC50% nM) DR7): 100 nM; IC50 (DRB1*0802 (DR8w2); Binding Capacity (IC50% nM) DR8w2): > 10000 nM
CC(C)C[C@H](NC(=O)[C@H](Cc1c[nH]c2ccccc12)NC(=O)[C@@H](NC(=O)[C@H](Cc1ccccc1)NC(=O)[C@@H](NC(=O)[C@@H]1CCCN1C(=O)[C@H](CC(C)C)NC(=O)[C@H](C)NC(=O)[C@@H]1CCCN1C(=O)[C@H](CC(C)C)NC(=O)[C@H](Cc1ccccc1)NC(=O)[C@H](Cc1ccccc1)NC(=O)[C@H](CCC(N)=O)NC(=O)[C@H](CO)NC(=O)[C@@H](NC(=O)[C@@H](N)CC(C)C)[C@@H](C)O)C(C)C)[C@@H](C)O)C(=O)O [Peptide 1136.16] | < 1000 | < 1000 |  |  | > 1000 |  |  | > 1000 | > 1000 | > 10000 | < 1000 | < 1000 | < 1000 | > 1000 | IC50 (DRB1*1501 (DR2w2b); read-out: Binding Capacity (IC 50% nM) Other Alleles DR2w2b): > 1000 nM; IC50 (DRB1*0802 (DR8w2); Binding Capacity (IC 50% nM) Other Alleles DR8w2): < 1000 nM; IC50 (DRB1*0901 (DR9); Binding Capacity (IC 50% nM) Other Alleles DR9): < 1000 nM

Reference: patent US6413517B1, “Identification of broadly reactive DR restricted epitopes” (Epimmune, Inc., priority 1997, dated 2002)
